This note sets out measurements from patent EP2197879B1, “C7-SUBSTITUTED CAMPTOTHECIN ANALOGS” (priority 2007, dated 2009).

In experiment [1] the test system is A2780/WT (wild-type) cells. The experiment can be described thus: Sulforhodamine B (SRB) cytotoxicity assay in A2780/WT cells. It is filed as cell-based. The protocol: (§1) Each of the testing conditions used in this study in both A2780/WT (wild-type) and A2780/DX5 cells were repeated in five to fifteen experiments that were performed on separate days. Each experiment consisted of one microtiter plate with at least eight individual assays of a given drug treatment condition on the plate. The sulforhodamine B (SRB) assay was used to assess cytotoxicity and absorbance at 570 nm (A570) in order to calculate the percentage of cell control (or percent cell survival) for the various treatment conditions in the plate wells.
(§2) Roswell Park Memorial Institute (RPMI 1640) medium, fetal bovine serum (FBS), and L-glutamine were purchased from Gibco BRL. Drugs were dissolved in sterile dimethylsulfoxide (DMSO), from American Type Culture Collection (ATCC) for stock solutions (2.5 to 5.0 mM). Subsequent dilutions were made using cell culture medium (prior to adding the drug to cells). SRB was purchased from Sigma and dissolved in 1.0 percent acetic acid. Trichloroacetic acid was purchased from VWR International.
(§3) Cells were manipulated in a Class IIA/B3 Biological Safety Cabinet (Forma Scientific) and maintained at 37°C in a humidified atmosphere containing 5% CO2 in a water-jacketed cell culture incubator (Forma Scientific). Cells were counted using a Coulter-Z1 counter (Beckman-Coulter). Following drug treatment, plates were washed using a Biomek 2000 station (Beckman) and, following exposure to SRB dye, plates were washed using an automated plate washer (Model EL404, Bio-Tek Instruments). Percentage of control was correlated to A570 values and determined using a Model EL800 plate reader (Bio-Tek Instruments).
(§4) Population doubling times for the two cell lines used in this study encompassed a total of five cell doublings corresponding to approximately 5 days for A2780/WT and A2780/DX5 cells. A2780/WT and A2780/DX5 cells were cultured in RPMI 1640 medium supplemented with 10% fetal bovine serum and 1 mM of L-glutamine. Both cell lines were maintained as monolayered cultures in T-25 or T-75 flasks and then seeded to microtiter plate wells for experiments described herein. Prior to SRB assays, cell viability was monitored by evaluation of microtiter plate wells. Dead cells detach and float while living cells remain attached to the bottom of the cell well.
(§5) The sulforhodamine B (SRB) cytotoxicity assay (see, Skehan P, et al., New colorimetric cytotoxicity assay for anticancer-drug screening. J. Natl. Cancer Inst. 82:1107-1112 (1990)) was used to determine the cytotoxic effects of BNP1350, SN-38, topotecan, 9-NH2-CPT, and 9-NO2-CPT on cell growth in vitro. Briefly, after the medium was aspirated from individual plate wells, trichloroacetic acid (100 µL of 10.0% solution) was added to each well, and the plates were incubated at 4°C for at least 1 hour. The plates were washed five-times with water using an automated microplate washer (Model EL 404, Bio-Tek Instruments), SRB solution (100 µL of 0.4 grams SRB dissolved in 100 mL 1.0 percent acetic acid) was added, and plates remained at room temperature for 15 minutes. The plates were then washed five-times using acetic acid (1.0%), air dried, and bound dye was solubilized in Tris base (150 µL, 10 mM). Plates were agitated (gently) for 5 minutes and the absorbance values of the SRB dye-protein adduct at a 570 nm wavelength (A570) were determined using an automated microtiter plate reader equipped with an A570 filter (Model EL800, BioTek Instruments). Table VII. Summary of Cytotoxicity Experiments in A2780/WT and DX5 Cells
For orientation: In SRB staining, fixed cells bind dye roughly in proportion to their protein.

Another experiment concerns A2780/DX5 cells. The experiment can be described thus: Sulforhodamine B (SRB) cytotoxicity assay in A2780/DX5 cells. It is filed as cell-based. The following applies: for IC50 Ratio: A2780/DX5 versus A2780/WT. The protocol: as §1, §2, §3, §4, §5
The mark [2] stands for this setting: Homo sapiens, SRB assay, A2780/WT cells, read-out: A2780/ WT (IC50).
Where [3] appears, read: Homo sapiens, A2780, read-out: A2780/ DX5 (IC50).
The mark [4] stands for this setting: Homo sapiens, A2780, read-out: A2780/ WT (IC50).
Where [5] appears, read: Homo sapiens, SRB assay, A2780/DX5 cells, read-out: A2780/ DX5 (IC50).

Like-named read-outs stand apart in the source and are kept apart here.

Regarding `CC[C@@]1(O)C(=O)OCc2c1cc1n(c2=O)Cc2c-1nc1ccccc1c2CC[Si](C)(C)CN1CCCC1` [Compound 32, (4S)-11-[2-(dimethyl-pyrrolidin-1-ylmethyl-silanyl)-ethyl]-4-ethyl-4-hydroxy-1,12-dihydro-4H-2-oxa-6,12a-diaza-dibenzo[b,h]fluorene-3,13-dione], the figures for the IC50 (in experiment [1] (setting [2]); in the experiment on A2780/DX5 cells (setting [3])) were 46.4 nM and 319 nM, respectively. In addition, in the experiment with A2780/DX5 cells, the “IC50 Ratio” value was found to be 6.9.

Turning to `CC[C@@]1(O)C(=O)OCc2c1cc1n(c2=O)Cc2c-1nc1ccccc1c2CC[Si](C)(C)CSc1nccn1C` [Compound 33, (4S)-11-{2-[dimethyl-(1-methyl-1H-imidazol-2-ylsulfanylmethyl)-silanyl]-ethyl}-4-ethyl-4-hydroxy-1,12-dihydro-4H-2-oxa-6,12a-diaza-dibenzo[b,h]fluorene-3,13-dione], the IC50 in experiment [1] (setting [4]) was determined as 9.7 nM; with A2780/DX5 cells (setting [3]), 57.8 nM. In addition, the “IC50 Ratio” value with A2780/DX5 cells worked out at 6.0.

As for `CC[C@@]1(O)C(=O)OCc2c1cc1n(c2=O)Cc2c-1nc1ccccc1c2CC[Si](C)(C)CSC1=NCCS1` [Compound 34, (4S)-11-{2-[(4,5-dihydro-thiazol-2-ylsulfanylmethyl)-dimethylsilanyl]-ethyl}-4-ethyl-4-hydroxy-1,12-dihydro-4H-2-oxa-6,12a-diaza-dibenzo[b,h]fluorene-3,13-dione], the IC50 turned out to be 20.3 nM in experiment [1] (setting [4]) and 55.5 nM in the experiment on A2780/DX5 cells (setting [5]). In the experiment on A2780/DX5 cells, the “IC50 Ratio” value was 2.7.

With `CC[C@@]1(O)C(=O)OCc2c1cc1n(c2=O)Cc2c-1nc1ccccc1c2CC[Si](C)(C)CSCCO` [Compound 35, (4S)-4-ethyl-4-hydroxy-11-{2-[(2-hydroxy-ethylsulfanylmethyl)-dimethyl-silanyl]-ethyl}-1,12-dihydro-4H-2-oxa-6,12a-diaza-dibenzo[b,h]fluorene-3,13-dione], the IC50 turned out to be 8.2 nM in experiment [1] (setting [2]) and 21.6 nM in the experiment on A2780/DX5 cells (setting [5]). Besides, in the experiment with A2780/DX5 cells, the “IC50 Ratio” value is listed as 2.6.

Turning to `CC[C@@]1(O)C(=O)OCc2c1cc1n(c2=O)Cc2c-1nc1ccccc1c2CC[Si](C)(C)CNS(=O)(=O)c1ccc(Cl)cc1` [Compound 37, (4S)-4-chloro-N-({[2-(4-ethyl-4-hydroxy-3,13-dioxo-3,4,12,13-tetrahydro-1H-2-oxa-6,12a-diaza-dibenzo[b,h]fluoren-11-yl)-ethyl]-dimethylsilanyl} -methyl)-benzenesulfonamide], the values for the IC50 (in experiment [1] (setting [4]); in the experiment with A2780/DX5 cells (setting [3])) were 207 nM and 845 nM, respectively. For the same compound, in the experiment on A2780/DX5 cells, the “IC50 Ratio” value is listed as 4.08.

On to `CC[C@@]1(O)C(=O)OCc2c1cc1n(c2=O)Cc2c-1nc1ccccc1c2CC[Si](C)(C)CNC(=O)Nc1ccccc1` [Compound 41, (4S)-1-({[2-(4-ethyl-4-hydroxy-3,13-dioxo-3,4,12,13-tetrahydro-1H-2-oxa-6,12a-diaza-dibenzo[b,h]fluoren-11-yl)-ethyl]-dimethylsilanyl}-methyl)-3-phenylurea], for which the results for the IC50 (in experiment [1] (setting [4]); in the experiment with A2780/DX5 cells (setting [3])) were 23.2 nM and 259 nM, respectively. In addition, in the experiment with A2780/DX5 cells, the “IC50 Ratio” value is 11.2.

As to `CCN(CC)C(=O)NC[Si](C)(C)CCc1c2c(nc3ccccc13)-c1cc3c(c(=O)n1C2)COC(=O)[C@]3(O)CC` [Compound 43, (4S)-1,1-diethyl-3-({[2-(4-ethyl-4-hydroxy-3,13-dioxo-3,4,12,13-tetrahydro-1H-2-oxa-6,12a-diaza-dibenzo[b,h]fluoren-11-yl)-ethyl]-dimethylsilanyl} -methyl)-urea], the IC50 in experiment [1] (setting [4]) was 68.9 nM; in the experiment on A2780/DX5 cells (setting [3]), 295 nM. The “IC50 Ratio” value in the experiment with A2780/DX5 cells stood at 4.28.

Take `CC[C@@]1(O)C(=O)OCc2c1cc1n(c2=O)Cc2c-1nc1ccccc1c2CC[Si](C)(C)CNC(=O)N(C)C` [Compound 45, (4S)-3-({[2-(4-ethyl-4-hydroxy-3, 13-dioxo-3,4, 12, 13-tetrahydro-1H-2-oxa-6,12a-diaza-dibenzo[b,h]fluoren-11-yl)-ethyl]-dimethylsilanyl}-methyl)-1,1-dimethyl-urea]: the IC50 in experiment [1] (setting [2]) came out at 36.1 nM; in the experiment with A2780/DX5 cells (setting [5]), 178 nM. Also, the “IC50 Ratio” value with A2780/DX5 cells worked out at 4.9.

Take `CC[C@@]1(O)C(=O)OCc2c1cc1n(c2=O)Cc2c-1nc1ccccc1c2CC[Si](C)(C)O` [Compound 46, (4S)-4-Ethyl-4-hydroxy-11-[2-(hydroxydimethylsilanyl)-ethyl]-1, 12-dihydro-4H-2-oxa-6,12a-diaza-dibenzo[b,h]fluorene-3,13-dione]: the IC50 worked out at 10 nM in experiment [1] (setting [2]) and 50 nM with A2780/DX5 cells (setting [5]). For the same compound, the “IC50 Ratio” value in the experiment on A2780/DX5 cells stood at 5.0.

For `CCC1(O)C(=O)OCc2c1cc1n(c2=O)Cc2c-1nc1ccccc1c2CC[Si](C)(C)CCC(=O)O` (centres unmarked) [Compound 47, 3-{[2-(4-Ethyl-4-hydroxy-3,13-dioxo-3 ,4, 12, 13-tetrahydro-1H-2-oxa-6, 12a-diaza-dibenzo[b,h]fluoren-11-yl)-ethyl]-dimethyl-silanyl}-propionic acid], the IC50 in experiment [1] (setting [2]) stood at 200 nM; in the experiment on A2780/DX5 cells (setting [5]), 629 nM. In addition, in the experiment with A2780/DX5 cells, the “IC50 Ratio” value is 3.1.

For `CCC1(O)C(=O)OCc2c1cc1n(c2=O)Cc2c-1nc1ccccc1c2CC[Si](C)(C)CCC(=O)N(C)C` (centres unmarked) [Compound 48, 3-{[2-(4-Ethyl-4-hydroxy-3,13-dioxo-3,4,12,13-tetrahydro-1H-2-oxa-6,12a-diaza-dibenzo[b,h]fluoren-11-yl)-ethyl]-dimethyl-silanyl}-N,N-dimethyl-propionamide], the IC50 in experiment [1] (setting [2]) worked out at 42.3 nM; in the experiment on A2780/DX5 cells (setting [5]), 164 nM. For the same compound, in the experiment with A2780/DX5 cells, the “IC50 Ratio” value is on record as 3.9.

With `CCC1(O)C(=O)OCc2c1cc1n(c2=O)Cc2c-1nc1ccccc1c2CC[Si](C)(C)CCC(=O)NC(CCC(=O)OCc1ccccc1)C(=O)OCc1ccccc1` (centres unmarked) [Compound 49, 2-(3-{[2-(4-Ethyl-4-hydroxy-3, 13-dioxo-3,4, 12, 13-tetrahydro-1H-2-oxa-6,12a-diaza-dibenzo[b,h]fluoren-11-yl)-ethyl]-dimethyl-silanyl}-propionylamino)-pentanedioic acid dibenzyl ester], the IC50 (in experiment [1] (setting [2]); in the experiment with A2780/DX5 cells (setting [5])) was greater than 2000 nM throughout.

Regarding `CCC1(O)C(=O)OCc2c1cc1n(c2=O)Cc2c-1nc1ccccc1c2CC[Si](C)(C)CCC(=O)NC(CCC(=O)O)C(=O)O` (centres unmarked) [Compound 50, 2-(3-{[2-(4-Ethyl-4-hydroxy-3, 13-dioxo-3,4, 12, 13-tetrahydro-1H-2-oxa-6, 12a-diaza-dibenzo[b,h]fluoren-11-yl)-ethyl]-dimethyl-silanyl}-propionylamino)-pentanedioic add], the IC50 in experiment [1] (SRB assay, A2780/WT cells, read-out: A2780/ WT (IC50)) was 1700 nM; in the experiment with A2780/DX5 cells (SRB assay, A2780/DX5 cells, read-out: A2780/ DX5 (IC50)), greater than 2000 nM. In addition, the “IC50 Ratio” value in the experiment with A2780/DX5 cells was 1699.3.

Regarding `CC[C@@]1(O)C(=O)OCc2c1cc1n(c2=O)Cc2c-1nc1ccccc1c2CC[Si](C)(C)CCCOC(=O)c1ccccc1` [Compound 55, Benzoic acid 3-{[2-(4-ethyl-4-hydroxy-3,13-dioxo-3,4, 12, 13-tetrahydro-1H-2-oxa-6,12a-diaza-dibenzo[b,h]fluoren-11-yl)-ethyl]-dimethylsilanyl}-propyl ester], the results for the IC50 (in experiment [1] (setting [2]); in the experiment with A2780/DX5 cells (setting [5])) were 24 nM and 112 nM, respectively. Also, the “IC50 Ratio” value in the experiment on A2780/DX5 cells is 4.6.

For the compound `CC[C@@]1(O)C(=O)OCc2c1cc1n(c2=O)Cc2c-1nc1ccccc1c2CC[Si](C)(C)CCCOC(=O)c1ccco1` [Compound 57, Furan-2-carboxylic acid 3-{[2-(4-ethyl-4-hydroxy-3,13-dioxo-3,4, 12, 13-tetrahydro-1H-2-oxa-6,12a-diaza-dibenzo[b,h]fluoren-11-yl)-ethyl]-dimethyl-silanyl}-propyl ester], the IC50 stood at 12.3 nM in experiment [1] (setting [2]) and 29.2 nM in the experiment on A2780/DX5 cells (setting [5]). Besides, the “IC50 Ratio” value in the experiment on A2780/DX5 cells is on record as 2.4.
